From patent US20240287093A1, “HIGH ACTIVITY STING PROTEIN AGONIST” (ADLAI NORTYE BIOPHARMA CO., LTD., priority 2018, published 2024)
pEC50: −log10 of the molar value.

Key:
Assay type in all cases: cell-based
STING variants (WT) = target: T1, STING variants (WT) (Homo sapiens, UniProt Q86WV6); assay: SEAP reporter assay in HEK-Blue ISG KO-STING cells transfected with STING WT variant (Method 1); settings: 24 h
T1 construct: host or cells: HEK-Blue ISG KO-STING cells (Invivogen, hkb-kostg)
From the text: (§1) Example I: STING Variants (WT & HAQ) Activation by Compounds in HEK-Blue™ ISG KO-STING Cells (Method 1)
(§2) Activation of STING can be determined using a SEAP reporter assay in HEK-Blue™ ISG KO-STING cells (Invivogen, cat #hkb-kostg) transfected with plasmids expressing STING variants (WT & HAQ) (referred to WO2017/175147A1). STING variants (WT & HAQ) vector were constructed based on STING-232H vector (Origene, RC208418). GFP vector (VT2069) was bought from Youbio. The detailed protocol as follows: HEK-Blue™ ISG KO-STING cells were harvest and seeding into 96 well plate, the final cell number was 0.8×10^5 cells/well. Transfections were prepared using Lipofectamine 2000 (Invitrogen, Cat #11668-027) following the manufacturer's instructions (Lipo2000:DNA=1:10), 20 ul of transfection suspension containing 1 ng STING vector was added to cell culture plate and incubated at 37° C., 5% CO2 for 24 h. After 24 hours incubation, compounds were added at proper concentration, and the final DMSO concentration was 0.5%. After 24 h incubation, the supernatant was collected to detect SEAP signal using Great EscAPe SEAP chemiluminescence KIT (Clontech, cat #631738) and cells were collected to detect cell viability using CellTiter-Glo Luminescent Cell Viability Assay (Promega, cat #G7573) following the manufacturer's instructions. The data were described by the ratio of the stimulating signal of compounds to 0.5% DMSO.

STING variants (HAQ) = target: T2, STING variants (HAQ) (Homo sapiens, UniProt Q86WV6, G230A/R293Q/R71H); assay: SEAP reporter assay in HEK-Blue ISG KO-STING cells transfected with STING HAQ variant (Method 1); settings: 24 h
T2 construct: host or cells: HEK-Blue ISG KO-STING cells (Invivogen, hkb-kostg)
From the text: as §1, §2

STING = target: T3, STING (Homo sapiens, UniProt Q86WV6, G230A/H232R/R293Q/R71H); assay: IFNβ release from THP1 by STING activation (hIFNβ ELISA); settings: THP1 cells, 24 h, IFN-β in supernatant; inactive = IFNβ not detected at the maximum concentration of compounds
T3 construct: THP1 was purchased from National Collection of Authenticated Cell Cultures (Cat #TCHu 57); host or cells: THP1
Method: Example III: Compound Stimulate THP1 to Release IFNβ by STING Activation
In this assay, activation of STING by compounds was evaluated by detecting their ability to stimulate the secretion of IFN-β (interferon-beta) from THP1. THP1 was purchased from National Collection of Authenticated Cell Cultures (Cat #TCHu 57). The top dose of compounds was setted according to their solubility. First, Compounds were 3 times diluted with medium, 8-dose points in total. The final DMSO concentration was 0.2%. THP1 during the logarithmic phase was resuspended to 2×10^6 cells/ml in assay medium. The THP1-cell suspension was dispensed into a 96-well U bottom plate containing 50 ul of compound diluted in medium. After 24 h incubation at 37° C., 5% CO2, the supernatant was collected. The concentration of IFN-β in the supernatant was measured using a human IFNβ ELISA KIT (R&D, DY814-05). The data was fitted with GraphPad Prism or XLfit to calculate EC50 values.

[1] = compound concentration 31.25 μM, SEAP signal ratio to 0.5% DMSO
[2] = compound concentration 15.65 μM
[3] = compound concentration 169.6 μM

T3 sequence (Q86WV6 whole entry R71H/G230A/H232R/R293Q): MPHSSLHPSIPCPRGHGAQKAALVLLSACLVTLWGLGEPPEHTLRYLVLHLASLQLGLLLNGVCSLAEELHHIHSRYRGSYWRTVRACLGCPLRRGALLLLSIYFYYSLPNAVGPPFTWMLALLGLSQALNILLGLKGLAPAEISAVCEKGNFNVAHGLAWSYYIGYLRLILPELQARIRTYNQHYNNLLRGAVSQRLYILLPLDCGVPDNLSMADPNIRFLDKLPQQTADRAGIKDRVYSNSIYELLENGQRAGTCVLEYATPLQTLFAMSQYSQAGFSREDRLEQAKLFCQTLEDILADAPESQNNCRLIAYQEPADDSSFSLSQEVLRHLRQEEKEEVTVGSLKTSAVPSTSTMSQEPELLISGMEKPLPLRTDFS
T2 sequence (Q86WV6 whole entry R71H/G230A/R293Q): as the sequence (Q86WV6 whole entry R71H/G230A/H232R/R293Q) above, with R232H counted along it

| Structure (SMILES) | Fold change related to DMSO control, WT (STING variants (WT); compound concentration 25 μM) [fold] | Fold change related to DMSO control, HAQ (STING variants (HAQ); compound concentration 25 μM) [fold] | pEC50 (STING) | other results |
| --- | --- | --- | --- | --- |
| CCn1nc(C)cc1C(=O)Nc1nc2cc(C(N)=O)cc3c2n1[C@@H](CCCNC(=O)OCc1ccccc1)CO3 [Example 1, Benzyl (S)-(3-(7-carbamoyl-2-(1-ethyl-3-methyl-1H-pyrazole-5-carboxamido)-3,4-dihydro-5-oxa-1,2a-diazaacenaphthylen-3-yl)propyl)carbamate] | – | – | – | Fold change related to DMSO control, WT (STING variants (WT); [1]): 3.08 fold; Fold change related to DMSO control, HAQ (STING variants (HAQ); [1]): 21.49 fold; hIFNβ ELISA (EC50, μM) (STING): inactive |
| CCn1nc(C)cc1C(=O)Nc1nc2cc(C(N)=O)cc3c2n1C(C)(CO)CO3 (stereo not drawn) [Example 3, 2-(1-Ethyl-3-methyl-1H-pyrazole-5-carboxamido)-3-(hydroxymethyl)-3-methyl-3,4-dihydro-5-oxa-1,2a-diazaacenaphthylene-7-carboxamide] | – | – | – | Fold change related to DMSO control, WT (STING variants (WT); compound concentration 125 μM): 1.79 fold; Fold change related to DMSO control, HAQ (STING variants (HAQ); compound concentration 125 μM): 3.54 fold |
| CCOC(=O)/C=C/C1(C)COc2cc(C(N)=O)cc3nc(NC(=O)c4cc(C)nn4CC)n1c23 (stereo not drawn) [Example 5, Ethyl (E)-3-(7-carbamoyl-2-(1-ethyl-3-methyl-1H-pyrazole-5-carboxamido)-3-methyl-3,4-dihydro-5-oxa-1,2a-diazaacenaphthylen-3-yl)acrylate] | – | – | – | Fold change related to DMSO control, WT (STING variants (WT); [2]): 1.52 fold; Fold change related to DMSO control, HAQ (STING variants (HAQ); [2]): 1.20 fold |
| CCn1nc(C)cc1C(=O)Nc1nc2cc(C(N)=O)cc3c2n1[C@@H](CCNC(=O)OC(C)(C)C)CO3 [Example 6, tert-Butyl (S)-(2-(7-carbamoyl-2-(1-ethyl-3-methyl-1H-pyrazole-5-carboxamido)-3,4-dihydro-5-oxa-1,2a-diazaacenaphthylen-3-yl)ethyl)carbamate] | – | – | – | Fold change related to DMSO control, WT (STING variants (WT); [3]): 0.76 fold; Fold change related to DMSO control, HAQ (STING variants (HAQ); [3]): 4.41 fold |
| CCn1nc(C)cc1C(=O)Nc1nc2cc(C(N)=O)cc3c2n1[C@@H](CCNC(=O)OCc1ccccc1)CO3 [Example 14, Benzyl (S)-(2-(7-carbamoyl-2-(1-ethyl-3-methyl-1H-pyrazole-5-carboxamido)-3,4-dihydro-5-oxa-1,2a-diazaacenaphthylen-3-yl)ethyl)carbamate] | 1.59 | 27.44 | – | – |
| CCn1nc(C)cc1C(=O)Nc1nc2cc(C(N)=O)cc3c2n1[C@@H](CCCCNC(=O)OCc1ccccc1)CO3 [Example 17, Benzyl (S)-(4-(7-carbamoyl-2-(1-ethyl-3-methyl-1H-pyrazole-5-carboxamido)-3,4-dihydro-5-oxa-1,2a-diazaacenaphthylen-3-yl)butyl)carbamate] | 1.76 | 37.64 | – | – |
| CCn1nc(C)cc1C(=O)Nc1nc2cc(C(N)=O)cc3c2n1C(C)(C)CO3 [Example 21, 2-(1-Ethyl-3-methyl-1H-pyrazole-5-carboxamido)-3,3-dimethyl-3,4-dihydro-5-oxa-1,2a-diazaacenaphthylene-7-carboxamide] | 2.18 | 8.87 | – | – |
| CCn1nc(C)cc1C(=O)Nc1nc2cc(C(N)=O)cc3c2n1C(C)(CN(C)CCc1ccccc1)CO3 (stereo not drawn) [Example 29, 2-(1-Ethyl-3-methyl-1H-pyrazole-5-carboxamido)-3-methyl-3-((methyl(phenethyl)amino)methyl)-3,4-dihydro-5-oxa-1,2a-diazaacenaphthylene-7-carboxamide] | 1.06 | 1.14 | – | – |
| CCn1nc(C)cc1C(=O)Nc1nc2cc(C(N)=O)cc3c2n1[C@@H](COCc1ccccc1)CO3 [Example 30, (S)-3-((Benzyloxy)methyl)-2-(1-ethyl-3-methyl-1H-pyrazole-5-carboxamido)-3,4-dihydro-5-oxa-1,2a-diazaacenaphthylene-7-carboxamide] | 1.63 | 35.09 | – | – |
| CCn1nc(C)cc1C(=O)Nc1nc2cc(C(N)=O)cc3c2n1[C@@H](CCNC(=O)/C=C/c1ccc(C#N)cc1)CO3 [Example 37, (S,E)-3-(2-(3-(4-cyanophenyl)acrylamido)ethyl)-2-(1-ethyl-3-methyl-1H-pyrazole-5-carboxamido)-3,4-dihydro-5-oxa-1,2a-diazaacenaphthylene-7-carboxamide] | – | – | – | Fold change related to DMSO control, WT (STING variants (WT); compound concentration 3.11 μM): 1.07 fold; Fold change related to DMSO control, HAQ (STING variants (HAQ); compound concentration 3.11 μM): 1.85 fold |
| CCn1nc(C)cc1C(=O)Nc1nc2cc(C(N)=O)cc3c2n1[C@@H](CCNC(=O)/C=C/c1cccc(F)c1)CO3 [Example 38, (S,E)-2-(1-ethyl-3-methyl-1H-pyrazole-5-carboxamido)-3-(2-(3-(3-fluorophenyl)acrylamido)ethyl)-3,4-dihydro-5-oxa-1,2a-diazaacenaphthylene-7-carboxamide] | 2.96 | 22.76 | – | – |
| CCn1nc(C)cc1C(=O)Nc1nc2cc(C(N)=O)cc3c2n1[C@@H](CCNC(=O)/C=C/c1ccccc1OC)CO3 [Example 39, (S,E)-2-(1-ethyl-3-methyl-1H-pyrazole-5-carboxamido)-3-(2-(3-(2-methoxyphenyl)acrylamido)ethyl)-3,4-dihydro-5-oxa-1,2a-diazaacenaphthylene-7-carboxamide] | 2.78 | 25.85 | – | – |
| CCn1nc(C)cc1C(=O)Nc1nc2cc(C(N)=O)cc3c2n1[C@@H](CCNC(=O)OCCc1ccccc1)CO3 [Example 42, Phenethyl (S)-(2-(7-carbamoyl-2-(1-ethyl-3-methyl-1H-pyrazole-5-carboxamido)-3,4-dihydro-5-oxa-1,2a-diazaacenaphthylen-3-yl)ethyl)carbamate] | – | – | – | Fold change related to DMSO control, WT (STING variants (WT); compound concentration 21.4 μM): 1.10 fold; Fold change related to DMSO control, HAQ (STING variants (HAQ); compound concentration 21.4 μM): 10.52 fold |
| CCn1nc(C)cc1C(=O)Nc1nc2cc(C(N)=O)cc3c2n1CC(C)(C)CN3CCOC [Example 73, 1-(1-ethyl-3-methyl-1H-pyrazole-5-carboxamido)-6-(2-methoxyethyl)-8,8-dimethyl-6,7,8,9-tetrahydro-2,6,9a-triazabenzo[cd]azulene-4-carboxamide] | – | – | 5.17 | – |
| CCn1nc(C)cc1C(=O)Nc1nc2cc(C(N)=O)cc3c2n1CC(C)(C)CN3CCCOC [Example 74, 1-(1-Ethyl-3-methyl-1H-pyrazole-5-carboxamido)-6-(3-methoxypropyl)-8,8-dimethyl-6,7,8,9-tetrahydro-2,6,9a-triazabenzo[cd]azulene-4-carboxamide] | – | – | 4.93 | – |
| CCn1nc(C)cc1C(=O)Nc1nc2cc(C(N)=O)cc3c2n1CC(C)(C)CN3CCOCc1ccccc1 [Example 75, 6-(2-(benzyloxy)ethyl)-1-(1-ethyl-3-methyl-1H-pyrazole-5-carboxamido)-8,8-dimethyl-6,7,8,9-tetrahydro-2,6,9a-triazabenzo[cd]azulene-4-carboxamide] | – | – | 5.11 | – |
| CCn1nc(C)cc1C(=O)Nc1nc2cc(C(N)=O)cc3c2n1CC(C)(C)CN3CCO [Example 76, 1-(1-ethyl-3-methyl-1H-pyrazole-5-carboxamido)-6-(2-hydroxyethyl)-8,8-dimethyl-6,7,8,9-tetrahydro-2,6,9a-triazabenzo[cd]azulene-4-carboxamide] | – | – | 5.00 | – |
| CCn1nc(C)cc1C(=O)Nc1nc2cc(C(N)=O)cc3c2n1CC1(CCC1)CO3 [Example 77, 1-(1-ethyl-3-methyl-1H-pyrazole-5-carboxamido)-7H,9H-6-oxa-2,9a-diazaspiro[benzo[cd]azulene-8,1′-cyclobutan]-1,2a,2a1(5a),4-tetraene-4-carboxamide] | – | – | 4.68 | – |
| CCn1nc(C)c(F)c1C(=O)Nc1nc2cc(C(N)=O)cc3c2n1CC1(CCC1)CO3 [Example 78, 1-(1-Ethyl-4-fluoro-3-methyl-1H-pyrazole-5-carboxamido)-7H,9H-6-oxa-2,9a-diazaspiro[benzo[cd]azulene-8,1′-cyclobutan]-1,2a,2a1(5a),4-tetraene-4-carboxamide] | – | – | 4.72 | – |
